pIC50: −log10 of the molar value. Several values for one entry are separate records, joined by “and”; a condition that tells them apart may be missing. Equal values may be shown once. Read-outs that look alike come from different tables or passages of the source.
How the values were obtained:
AKT2, AKT3 = experiment: KiNativ assay; format: binding; conditions: H929 live cell
Method in brief: (§1)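 In duplicate, compounds at 10 μM were screened against kinases in H929 live cells using KiNativ, with MS as the detection method for IC50.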

MAP2K4 = MAP2K4 (Homo sapiens (Human), UniProt P45985); experiment: KiNativ assay; format: binding; conditions: H929 live cell
Experimental: (§2) Biochemical IC50s of the compounds of the present disclosure against various kinases were measured in a KiNativ assay. Compounds were screened in duplicate at 10 μM in H929 live cell. IC50 was measured via Mass spectroscopy (MS).

DNAPK = DNAPK (Homo sapiens (Human), UniProt P78527); experiment: KiNativ assay; format: binding; conditions: H929 live cell
Experimental: as §2

NEK7 = NEK7 (Homo sapiens (Human), UniProt Q8TDX7); experiment: KiNativ assay; format: binding; conditions: H929 live cell
Experimental: as §2

LOK = LOK (Homo sapiens (Human), UniProt O94804); experiment: KiNativ assay; format: binding; conditions: H929 live cell
Experimental: as §2

JAK1 domain2 = JAK1 domain2 (Homo sapiens (Human), UniProt P23458); experiment: KiNativ assay; format: binding; conditions: H929 live cell
Experimental: as §2

SGK3 = SGK3 (Homo sapiens (Human), UniProt Q96BR1); experiment: KiNativ assay; format: binding; conditions: H929 live cell
Experimental: as §2

TLK1 = TLK1 (Homo sapiens (Human), UniProt Q9UKI8); experiment: KiNativ assay; format: binding; conditions: H929 live cell
Experimental: as §2

AurA = AurA (Homo sapiens (Human), UniProt O14965); experiment: KiNativ assay; format: binding; conditions: H929 live cell
Experimental: as §2

STLK3 = STLK3 (Homo sapiens (Human), UniProt Q9UEW8); experiment: KiNativ assay; format: binding; conditions: H929 live cell
Experimental: as §2

eEF2K = eEF2K (Homo sapiens (Human), UniProt O00418); experiment: KiNativ assay; format: binding; conditions: H929 live cell
Experimental: as §2

CHK1 = CHK1 (Homo sapiens (Human), UniProt O14757); experiment: KiNativ assay; format: binding; conditions: H929 live cell
Experimental: as §2

RIPK3 = RIPK3 (Homo sapiens (Human), UniProt Q9Y572); experiment: KiNativ assay; format: binding; conditions: H929 live cell, read-out: inhibition (10 μM)
Method in brief: as §1

AMPKa1, AMPKa2 = experiment: KiNativ assay; format: binding; conditions: H929 live cell
Experimental: as §2

NEK4 = NEK4 (Homo sapiens (Human), UniProt P51957); experiment: KiNativ assay; format: binding; conditions: H929 live cell
Experimental: as §2

Wnk1, Wnk2, Wnk3 = experiment: KiNativ assay; format: binding; conditions: H929 live cell
Experimental: as §2

CK1g3 = CK1g3 (Homo sapiens (Human), UniProt Q9Y6M4); experiment: KiNativ assay; format: binding; conditions: H929 live cell
Experimental: as §2

CHK2 = CHK2 (Homo sapiens (Human), UniProt O96017); experiment: KiNativ assay; format: binding; conditions: H929 live cell
Experimental: as §2

CDK2 = CDK2 (Homo sapiens (Human), UniProt P24941); experiment: KiNativ assay; format: binding; conditions: H929 live cell
Experimental: as §2

STK24 (MST3) = STK24 (MST3) (Homo sapiens (Human), UniProt Q9Y6E0); experiment: Z-lyte biochemical IC50 assay (Invitrogen); conditions: ATP concentration matched the Km
Method in brief: (§3)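 FRET-based Z-lyte kinase assays run at Invitrogen, ATP at each kinase's Km; for STK4, 6.25-160 ng enzyme with 2 μM Ser/Thr 07 peptide in HEPES pH 7.5, MgCl2, EGTA, Brij-35, 1 h reaction then development reagent. 10-point 3-fold titration from 10 μM.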

STK4 (MST1) = STK4 (MST1) (Homo sapiens (Human), UniProt Q13043); experiment: Z-lyte biochemical IC50 assay (Invitrogen); conditions: ATP concentration matched the Km
Method in brief: as §3

AurA, sequence (O14965 whole entry): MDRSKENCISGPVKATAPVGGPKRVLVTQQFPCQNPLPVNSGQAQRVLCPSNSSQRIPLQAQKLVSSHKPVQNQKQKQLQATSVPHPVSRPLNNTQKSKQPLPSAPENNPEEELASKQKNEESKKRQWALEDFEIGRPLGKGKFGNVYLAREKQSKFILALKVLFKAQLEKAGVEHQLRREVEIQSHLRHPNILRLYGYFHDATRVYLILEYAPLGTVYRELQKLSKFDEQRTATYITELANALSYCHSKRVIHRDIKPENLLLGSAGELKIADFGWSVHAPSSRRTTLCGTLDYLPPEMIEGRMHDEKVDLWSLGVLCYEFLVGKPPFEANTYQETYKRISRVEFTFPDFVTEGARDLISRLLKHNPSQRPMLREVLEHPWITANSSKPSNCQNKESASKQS
DNAPK, sequence (P78527 whole entry): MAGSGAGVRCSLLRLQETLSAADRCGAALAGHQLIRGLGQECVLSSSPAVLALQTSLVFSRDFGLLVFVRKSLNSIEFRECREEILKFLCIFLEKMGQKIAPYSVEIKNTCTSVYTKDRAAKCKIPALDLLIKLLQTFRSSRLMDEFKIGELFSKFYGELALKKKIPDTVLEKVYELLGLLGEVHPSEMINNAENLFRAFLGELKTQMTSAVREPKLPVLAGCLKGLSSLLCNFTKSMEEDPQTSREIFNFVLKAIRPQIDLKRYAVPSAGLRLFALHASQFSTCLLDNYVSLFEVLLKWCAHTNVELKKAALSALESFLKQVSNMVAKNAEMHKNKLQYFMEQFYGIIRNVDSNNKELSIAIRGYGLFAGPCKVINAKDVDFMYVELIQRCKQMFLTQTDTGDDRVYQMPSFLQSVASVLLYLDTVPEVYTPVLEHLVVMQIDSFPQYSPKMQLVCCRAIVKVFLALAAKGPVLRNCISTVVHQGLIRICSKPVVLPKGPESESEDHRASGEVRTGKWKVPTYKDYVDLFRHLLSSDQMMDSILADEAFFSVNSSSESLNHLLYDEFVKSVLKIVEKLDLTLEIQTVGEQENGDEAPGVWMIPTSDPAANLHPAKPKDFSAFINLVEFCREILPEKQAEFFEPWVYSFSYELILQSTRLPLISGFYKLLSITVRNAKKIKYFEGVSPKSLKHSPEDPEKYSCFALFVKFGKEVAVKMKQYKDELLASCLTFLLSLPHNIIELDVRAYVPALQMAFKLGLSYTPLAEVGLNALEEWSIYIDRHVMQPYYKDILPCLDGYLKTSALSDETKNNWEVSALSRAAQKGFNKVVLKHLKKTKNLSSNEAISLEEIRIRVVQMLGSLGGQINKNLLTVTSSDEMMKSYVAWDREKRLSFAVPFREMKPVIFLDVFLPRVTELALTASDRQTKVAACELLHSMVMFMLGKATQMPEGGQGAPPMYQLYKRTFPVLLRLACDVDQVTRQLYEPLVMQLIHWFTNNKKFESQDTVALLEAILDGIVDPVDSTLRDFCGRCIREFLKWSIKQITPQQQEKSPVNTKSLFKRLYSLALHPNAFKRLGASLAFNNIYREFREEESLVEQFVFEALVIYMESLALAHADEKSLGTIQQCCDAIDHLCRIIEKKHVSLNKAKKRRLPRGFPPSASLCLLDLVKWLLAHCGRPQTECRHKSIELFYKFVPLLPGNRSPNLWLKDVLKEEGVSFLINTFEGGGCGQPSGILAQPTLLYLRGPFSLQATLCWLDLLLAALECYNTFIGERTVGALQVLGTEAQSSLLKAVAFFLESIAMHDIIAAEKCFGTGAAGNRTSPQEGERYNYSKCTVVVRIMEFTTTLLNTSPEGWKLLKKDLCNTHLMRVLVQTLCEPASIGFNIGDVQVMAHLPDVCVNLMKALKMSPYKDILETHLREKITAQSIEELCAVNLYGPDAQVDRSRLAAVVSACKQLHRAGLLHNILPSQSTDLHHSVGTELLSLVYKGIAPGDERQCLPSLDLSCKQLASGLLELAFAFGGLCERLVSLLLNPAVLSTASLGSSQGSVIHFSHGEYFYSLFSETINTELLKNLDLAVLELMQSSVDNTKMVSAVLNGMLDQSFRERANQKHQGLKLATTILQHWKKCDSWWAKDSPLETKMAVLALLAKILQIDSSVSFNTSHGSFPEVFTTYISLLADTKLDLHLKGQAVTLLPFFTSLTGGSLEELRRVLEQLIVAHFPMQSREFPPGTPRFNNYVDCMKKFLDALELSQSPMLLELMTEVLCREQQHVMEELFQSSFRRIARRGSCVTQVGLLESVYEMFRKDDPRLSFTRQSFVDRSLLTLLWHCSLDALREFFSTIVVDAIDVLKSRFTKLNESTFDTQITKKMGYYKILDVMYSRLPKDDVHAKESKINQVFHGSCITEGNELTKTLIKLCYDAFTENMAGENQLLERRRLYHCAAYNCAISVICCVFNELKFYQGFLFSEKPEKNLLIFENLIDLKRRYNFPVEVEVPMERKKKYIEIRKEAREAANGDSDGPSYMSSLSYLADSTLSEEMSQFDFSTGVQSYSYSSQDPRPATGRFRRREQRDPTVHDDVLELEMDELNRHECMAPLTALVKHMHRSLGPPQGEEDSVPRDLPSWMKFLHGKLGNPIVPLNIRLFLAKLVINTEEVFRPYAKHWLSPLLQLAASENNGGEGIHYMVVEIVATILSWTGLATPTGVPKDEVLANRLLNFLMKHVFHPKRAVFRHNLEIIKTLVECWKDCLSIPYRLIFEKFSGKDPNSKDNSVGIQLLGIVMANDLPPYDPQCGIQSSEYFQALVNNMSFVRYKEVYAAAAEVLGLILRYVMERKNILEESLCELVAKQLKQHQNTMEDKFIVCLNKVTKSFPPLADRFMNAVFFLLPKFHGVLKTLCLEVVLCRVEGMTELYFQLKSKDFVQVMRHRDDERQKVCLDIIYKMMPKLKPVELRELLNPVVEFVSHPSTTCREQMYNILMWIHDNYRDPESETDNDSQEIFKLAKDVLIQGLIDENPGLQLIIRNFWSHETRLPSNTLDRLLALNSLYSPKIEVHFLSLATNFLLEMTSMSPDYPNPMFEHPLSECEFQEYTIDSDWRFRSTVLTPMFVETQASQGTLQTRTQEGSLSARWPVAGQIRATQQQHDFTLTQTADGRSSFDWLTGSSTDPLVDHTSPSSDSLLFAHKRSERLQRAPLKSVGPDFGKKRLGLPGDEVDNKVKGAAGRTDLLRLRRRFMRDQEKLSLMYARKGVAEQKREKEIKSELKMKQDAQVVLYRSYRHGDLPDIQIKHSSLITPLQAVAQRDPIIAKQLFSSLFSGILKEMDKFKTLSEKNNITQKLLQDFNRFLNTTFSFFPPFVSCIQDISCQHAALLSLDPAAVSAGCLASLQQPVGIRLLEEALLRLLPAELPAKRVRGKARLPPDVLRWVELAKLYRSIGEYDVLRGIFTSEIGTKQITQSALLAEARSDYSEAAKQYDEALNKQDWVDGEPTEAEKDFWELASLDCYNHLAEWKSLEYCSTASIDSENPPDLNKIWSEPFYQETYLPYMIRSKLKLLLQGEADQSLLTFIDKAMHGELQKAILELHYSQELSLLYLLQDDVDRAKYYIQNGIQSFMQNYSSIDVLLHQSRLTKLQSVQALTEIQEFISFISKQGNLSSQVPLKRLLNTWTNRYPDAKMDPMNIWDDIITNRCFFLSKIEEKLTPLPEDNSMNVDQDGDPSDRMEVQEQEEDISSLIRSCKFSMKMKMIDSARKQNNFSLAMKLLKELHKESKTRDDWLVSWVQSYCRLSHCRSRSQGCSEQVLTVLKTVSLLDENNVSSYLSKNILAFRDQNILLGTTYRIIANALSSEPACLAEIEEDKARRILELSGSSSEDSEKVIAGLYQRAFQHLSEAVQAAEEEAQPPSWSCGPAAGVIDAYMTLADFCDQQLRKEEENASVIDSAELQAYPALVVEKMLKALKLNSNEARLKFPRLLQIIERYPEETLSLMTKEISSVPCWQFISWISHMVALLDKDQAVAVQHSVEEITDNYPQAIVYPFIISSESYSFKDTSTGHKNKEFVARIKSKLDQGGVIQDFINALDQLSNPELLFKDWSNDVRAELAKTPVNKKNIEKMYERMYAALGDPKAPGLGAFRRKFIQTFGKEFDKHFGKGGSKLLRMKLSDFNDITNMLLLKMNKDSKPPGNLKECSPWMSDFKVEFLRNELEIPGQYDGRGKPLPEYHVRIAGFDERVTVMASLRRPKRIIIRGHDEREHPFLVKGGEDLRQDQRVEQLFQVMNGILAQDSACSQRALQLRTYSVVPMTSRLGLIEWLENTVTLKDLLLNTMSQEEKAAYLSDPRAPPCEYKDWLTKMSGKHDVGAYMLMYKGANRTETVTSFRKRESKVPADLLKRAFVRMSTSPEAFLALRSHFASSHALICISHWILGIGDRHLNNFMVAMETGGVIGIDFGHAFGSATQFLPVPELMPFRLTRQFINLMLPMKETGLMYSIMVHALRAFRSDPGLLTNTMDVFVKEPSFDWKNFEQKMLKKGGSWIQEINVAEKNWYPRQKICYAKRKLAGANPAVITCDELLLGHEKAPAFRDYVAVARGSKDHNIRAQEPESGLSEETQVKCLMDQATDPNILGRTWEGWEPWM
MAP2K4, sequence (P45985 whole entry): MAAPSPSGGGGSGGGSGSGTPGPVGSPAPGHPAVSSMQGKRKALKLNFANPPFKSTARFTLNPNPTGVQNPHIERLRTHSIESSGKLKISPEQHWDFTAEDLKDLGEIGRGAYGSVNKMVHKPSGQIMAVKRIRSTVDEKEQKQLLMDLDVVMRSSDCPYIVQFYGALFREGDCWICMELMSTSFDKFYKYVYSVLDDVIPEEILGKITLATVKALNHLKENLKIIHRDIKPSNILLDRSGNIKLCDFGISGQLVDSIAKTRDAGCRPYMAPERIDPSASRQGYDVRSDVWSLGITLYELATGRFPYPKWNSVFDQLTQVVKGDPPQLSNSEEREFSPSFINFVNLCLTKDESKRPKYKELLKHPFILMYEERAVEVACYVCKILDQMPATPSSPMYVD

## CN(C1CC1)S(=O)(=O)c1ccc(-c2cnc(N)c(-c3ccc4c(c3)CCNC4=O)c2)c(F)c1 [Compound I-28, 4-(6-amino-5-(1-oxo-1,2,3,4-tetrahydroisoquinolin-6-yl)pyridin-3-yl)-N-cyclopropyl-3-fluoro-N-methylbenzenesulfonamide]
AKT2, AKT3; 10 μM
  % inhibition (range): 0.0%
AKT2, AKT3
  inhibition (10 μM): 14.9%
MAP2K4; read-out: % inhibition (range)
  inhibition at 10 µM: 0%
MAP2K4; read-out: inhibition (10 μM)
  inhibition at 10 µM: 32.5%
DNAPK
  inhibition (10 μM): 42.6% and 82.1%
NEK7; read-out: % inhibition (range)
  inhibition at 10 µM: 0%
NEK7; read-out: inhibition (10 μM)
  inhibition at 10 µM: 16%
LOK; read-out: % inhibition (range)
  inhibition at 10 µM: 75 to 90%
LOK; read-out: inhibition (10 μM)
  inhibition at 10 µM: 85.5%
JAK1 domain2; read-out: % inhibition (range)
  inhibition at 10 µM: 0%
JAK1 domain2; read-out: inhibition (10 μM)
  inhibition at 10 µM: -33.7%
SGK3; read-out: % inhibition (range)
  inhibition at 10 µM: 0%
SGK3; read-out: inhibition (10 μM)
  inhibition at 10 µM: 9.9%
TLK1; read-out: % inhibition (range)
  inhibition at 10 µM: 0%
TLK1; read-out: inhibition (10 μM)
  inhibition at 10 µM: 1.8%
AurA
  inhibition (10 μM): 33.1%
AurA; read-out: % inhibition (range)
  inhibition at 10 µM: 0%
AurA; read-out: inhibition (10 μM)
  inhibition at 10 µM: 27.5%
STLK3; read-out: % inhibition (range)
  inhibition at 10 µM: 0%
STLK3; read-out: inhibition (10 μM)
  inhibition at 10 µM: 13.5%
eEF2K; read-out: % inhibition (range)
  inhibition at 10 µM: 0%
eEF2K; read-out: inhibition (10 μM)
  inhibition at 10 µM: -15.1%
CHK1; read-out: % inhibition (range)
  inhibition at 10 µM: 0%
CHK1; read-out: inhibition (10 μM)
  inhibition at 10 µM: 27.5%
RIPK3
  inhibition at 10 µM: -121%
AMPKa1, AMPKa2; 10 μM
  % inhibition (range): 0.0%
AMPKa1, AMPKa2
  inhibition (10 μM): −1.6%
NEK4; read-out: % inhibition (range)
  inhibition at 10 µM: 0%
NEK4; read-out: inhibition (10 μM)
  inhibition at 10 µM: -2.8%
Wnk1, Wnk2, Wnk3; 10 μM
  % inhibition (range): 0.0%
Wnk1, Wnk2, Wnk3
  inhibition (10 μM): −31.8%
CK1g3; read-out: % inhibition (range)
  inhibition at 10 µM: > 90%
CK1g3; read-out: inhibition (10 μM)
  inhibition at 10 µM: 93.8%
CHK2; read-out: % inhibition (range)
  inhibition at 10 µM: 0%
CHK2; read-out: inhibition (10 μM)
  inhibition at 10 µM: 6.8%
CDK2; read-out: % inhibition (range)
  inhibition at 10 µM: 0%
CDK2; read-out: inhibition (10 μM)
  inhibition at 10 µM: 27.6%
STK24 (MST3)
  pIC50: 6.70 to 7.40
STK4 (MST1)
  pIC50: > 7.40

Reference: patent US10710978B2, “STK4 inhibitors for treatment of hematologic malignancies” (Dana-Farber Cancer Institute, Inc., priority 2015, dated 2020)
